{"source": "patent US9655878B2", "about": "“Composition comprising coumestrol or a bean extract containing coumestrol” (AMOREPACIFIC CORPORATION, priority 2010, dated 2017)", "key": {"[1]": {"test_system": "aP2, Acrp30, PPAR, SREBP1c and FAS mRNA in adipocytes", "assay": "Expression of adipocyte-specific genes by Q-PCR", "format": "cell-based, mouse", "parameters": "dose or concentration left out as unconfirmed", "details": "coumestrol, relative to untreated group", "protocol": "(§1) In order to evaluate the coumestrol's effect of inhibiting adipocyte differentiation, […] coumestrol (CMS) was administered continuously while 3T3-L1 mouse preadipocytes (CL-173, ATCC) were differentiated into adipocytes. […] Rosiglitazone (Rosi), which is known to promote adipocyte differentiation, was used as positive control and […] berberine (BBR), which is known to inhibit adipocyte differentiation, was used as negative control. On the day when adipocyte differentiation was started and on days 2, 4 and 6, the test substance was administered and the medium was changed. The adipocyte differentiation was carried out for about 7 days when the adipocyte differentiation was completed in the positive control group.\nAlso, expression of adipocyte-specific genes in the in the adipocytes was investigated by Q-PCR. The genes tested were aP2 (fatty acid binding protein 4, adipocyte specific type), Acrp30 (adiponectin), PPAR (peroxisome proliferator-activated receptor), SREBP1c (sterol regulatory element binding protein 1c) and FAS (fatty acid synthase), which are used as molecular markers of adipocyte differentiation and fatty acid synthesis."}, "[2]": {"test_system": "Human umbilical vein endothelial cells (HUVECs)", "assay": "Nicotine detoxifying effect, viability of vascular endothelial cells", "format": "cell-based", "details": "HUVEC, 25 mM nicotine, 24 hours, relative to untreated group, nicotine only 55.1", "protocol": "Human umbilical vein endothelial cells (HUVECs, CRL-2873, ATCC) were used to evaluate the coumestrol's effect against nicotine which is a major toxic substance included in cigarettes. HUVECs were cultured under the condition of 37° C. and 5% CO2 using the microvascular endothelial cell growth medium-2 (EGM-2). The cells were seeded onto a 96-well plate, with 2×10^4 cells per well, and cultured for about 24 hours in a medium containing 10% FBS until ˜80% confluency. After treating with nicotine to a final concentration of 25 mM, the cells were cultured for 24 hours with 0.1, 1 or 10 μM coumestrol, except for the negative control group."}, "[3]": {"details": "cited from earlier work"}, "SH-SY5Y cells [4]": {"test_system": "SH-SY5Y cells", "assay": "cells", "format": "cell-based", "details": "Homo sapiens, read-out: Viability of nerve cells (%)", "protocol": "(§2) SH-SY5Y cells (CRL-2266, ATCC) were used to evaluate the coumestrol's effect of protecting nerve cells from neurotoxins. The cells were cultured in a medium comprising 90% DMEM, 10% fetal calf serum, 100 IU/mL penicillin and 100 μg/mL streptomycin under the condition of 37° C. and 5% CO2. When the cells grew confluent, they were harvested with trypsin, diluted on a 96-well plate to 1×10^4 cells per well, and then grafted onto a culture dish. 24 hours later, after treating the cultured cells with 0.01, 0.1 or 1 μM coumestrol, the cells were treated with 50 μM 6-OHDA 2 hours later to induce cytotoxicity. A negative control group was treated only with 50 μM 6-OHDA. Also, mitochondrial potential of the cells was measured using the JC-1 fluorescent reagent (Beyotime, China)."}, "mouse spleen cells": {"test_system": "mouse spleen cells", "assay": "Immune cell proliferating activity (CCK-8)", "format": "cell-based, ICR mouse", "details": "44 hours, relative to untreated group (100)", "protocol": "Spleen was aseptically removed from an ICR mouse sacrificed by cervical dislocation. The spleen was washed with an RPMI 1640 solution and lightly smashed with a sterilized glass rod to isolate the mouse spleen cells. A suspension of the isolated cells was passed through a 200-mesh stainless steel sieve (Sigma Chemical Co., St. Louis, Mo., USA) and centrifuged for 10 minutes at 4° C. and 3,000 rpm in a 50-mL centrifuge tube. The resulting cell pellets were suspended in a lysing buffer (Tris-buffered ammonium chloride; 0.87% NH4Cl, pH 7.2) for 5 minutes to remove red blood cells. The cells were washed twice with RPMI by centrifugal washing, diluted to 5.0×10^6 cells/mL in 10%-FBS RPMI 1640, and seeded on a 96-well plate, with 90 μL per each well, for measurement of cell proliferating activity. After preparing a stock solution such that the final concentration of coumestrol was 0.1 or 1 μM and adding 10 μL to each well, the cells were cultured for 44 hours and the proliferating activity of the spleen cells was measured (CCK-8, Dojindo Laboratories, Japan). 10 μL of 10 μg/mL LPS was used as positive control."}, "[5]": {"test_system": "3T3-L1 mouse preadipocytes", "assay": "Inhibition of adipocyte differentiation, Oil Red O staining of triglycerides", "format": "cell-based", "parameters": "dose or concentration left out as unconfirmed", "details": "coumestrol administered continuously, about 7 days differentiation; compared with rosiglitazone and berberine", "protocol": "as §1\nThen, differentiation of adipocytes was identified by staining triglycerides in the cells with Oil Red O (Sigma)."}, "SH-SY5Y cells [6]": {"test_system": "SH-SY5Y cells", "assay": "Scavenging of reactive oxygen species produced by 6-OHDA (DCFH-DA)", "format": "cell-based", "details": "50 μM 6-OHDA, 6 hours, relative to negative control", "protocol": "The same cells used in Test Example 4-1 were cultured under the same condition. The cultured cells were treated with 0.01, 0.1 or 1 μM coumestrol and then treated with 50 μM 6-OHDA 2 hours later to induce increase of reactive oxygen species (ROS) in the cells. After culturing the cells for 6 hours in an incubator, the quantity of ROS in the cells was measured using DCFH-DA and the decrease of the ROS was evaluated relative to the negative control group. The fluorescence intensity of DCF was measured with the Wallac VICTOR2 fluorometer (Wallac, Turku, Finland) at excitation wavelength of 485 nm and emission wavelength of 530 nm. ROS scavenging effect (%) relative to the negative control group was calculated from the measured fluorescence intensity."}, "SH-SY5Y cells [7]": {"test_system": "SH-SY5Y cells", "assay": "Inhibition of decline of mitochondrial potential (JC-1)", "format": "cell-based", "details": "50 μM 6-OHDA, negative control 0", "protocol": "as §2"}}, "data": [{"compound": "O=c1oc2cc(O)ccc2c2oc3cc(O)ccc3c12", "note": "[Coumestrol, 3,9-dihydroxy-6H-benzofuro(3,2-c)(1)benzopyran-6-one]", "values": [{"measurement": "mRNA expression of the molecular markers of adipocyte differentiation and fatty acid synthesis", "setting": "[1]", "result": "remarkably decreased"}, {"measurement": "viability at 0.1 µM", "setting": "[2]; 0.1 μM", "result": 67.2, "unit": "%"}, {"measurement": "viability at 1 µM", "setting": "[2]; 1 μM", "result": 72.2, "unit": "%"}, {"measurement": "viability at 10 µM", "setting": "[2]; 10 μM", "result": 88.9, "unit": "%"}, {"measurement": "bioavailability upon oral administration", "setting": "[3]", "result": "about 11.7%"}, {"measurement": "viability at 0.01 µM", "setting": "SH-SY5Y cells [4]", "result": 94.4, "unit": "%"}, {"measurement": "viability at 0.1 µM", "setting": "SH-SY5Y cells [4]", "result": 96.5, "unit": "%"}, {"measurement": "viability at 1 µM", "setting": "SH-SY5Y cells [4]", "result": 98.2, "unit": "%"}, {"measurement": "activity at 0.1 µM", "setting": "mouse spleen cells; 0.1 μM", "result": 278, "unit": "%"}, {"measurement": "activity at 1 µM", "setting": "mouse spleen cells; 1 μM", "result": 283, "unit": "%"}, {"measurement": "adipocyte differentiation (Oil Red O stained area)", "setting": "[5]", "result": "remarkably decreased"}, {"measurement": "ROS scavenging effect (%)", "setting": "SH-SY5Y cells [6]; 0.01 μM", "result": 73.0, "unit": "%"}, {"measurement": "ROS scavenging effect (%)", "setting": "SH-SY5Y cells [6]; 0.1 μM", "result": 86.7, "unit": "%"}, {"measurement": "ROS scavenging effect (%)", "setting": "SH-SY5Y cells [6]; 1 μM", "result": 93.5, "unit": "%"}, {"measurement": "Effect of inhibiting decline of mitochondrial potential (%)", "setting": "SH-SY5Y cells [7]; 0.01 μM", "result": 13.2, "unit": "%"}, {"measurement": "Effect of inhibiting decline of mitochondrial potential (%)", "setting": "SH-SY5Y cells [7]; 0.1 μM", "result": 29.1, "unit": "%"}, {"measurement": "Effect of inhibiting decline of mitochondrial potential (%)", "setting": "SH-SY5Y cells [7]; 1 μM", "result": 43.0, "unit": "%"}]}]}
